Results taken from patent US20030130210A1, “Method for treating a patient with neoplasia by treatment with an anthracycline antibiotic” (priority 1998, published 2003).

How the values were obtained:
HT-29 cells [1] = assay: Apoptosis by DNA fragmentation assay in HT-29 cells; format: cell-based, human; conditions: apoptosis inducing activity
[2] = Side effects of exisulind on administration; format: in vivo; conditions: doses higher than the recommended therapeutic levels; reversible
From the text: This effect is reversible, and liver enzymes return to normal levels when the administered dose of exisulind returns to the traditionally recommended level or when treatment is discontinued. The most serious side effects of anthracycline antibiotics, on the other hand, is their myocardial toxicity and their myelosuppressive activity.

HT-29 cells [3] = assay: Cyclic nucleotide (cGMP, cAMP) levels in HT-29 cells by radioimmunoassay; format: cell-based, human; conditions: HT-29 cells treated for 30 minutes
Method: The amount of PDE activity can be determined by assaying for the amount of cyclic GMP in the extract of treated cells using a radioimmunoassay (RIA). In this procedure, a neoplastic cell line is incubated with a test compound. […]
It has been observed that a compound which is useful in the practice of this invention (i.e., one that selectively induces apoptosis in neoplastic cells, but not substantially in normal cells) follows a time course consistent with cGMP-specific PDE inhibition. […] The intracellular targets of these drug actions are being studied further, but current data support the concept that the initial rise in cGMP content and the subsequent fall in cAMP content precede apoptosis in neoplastic cells exposed to test compounds useful in this invention. To determine the cyclic AMP content in cell extracts, radioimmunoassay techniques similar to those described above for cGMP are used.

HT-29 cells [4] = assay: Tumor cell growth inhibition in HT-29 cells; format: cell-based, human; conditions: 120 μM, viable cell count after trypan blue staining
HT-29 cells [5] = assay: Apoptosis and necrosis by morphology (acridine orange / ethidium bromide) in HT-29 cells; format: cell-based, human; conditions: 120 μM
Method: Treatment of cells with test compounds involves either pre- or post-confluent cultures and treatment for two to seven days at various concentrations of the compound in question. Apoptotic cells are measured by combining both the attached and “floating” compartments of the cultures. The protocol for treating tumor cell cultures with sulindac and related compounds to obtain a significant amount of apoptosis has been described in the literature. (See, Piazza, G. A., et al., Cancer Research, 55:3110-16, 1995, which is incorporated herein by reference). The novel features include collecting both floating and attached cells, identification of the optimal treatment times and dose range for observing apoptosis, and identification of optimal cell culture conditions. […]
Reference compounds and test compounds were analyzed for their cGMP-specific PDE inhibitory activity in accordance with the protocols for the assay, supra. […] Apoptotic and necrotic cell death was determined as previously described (Duke and Cohen, In: Current Protocols in Immunology, 3.17.1-3.17.16, New York, John Wiley and Sons, 1992). […]
The apoptosis inducing activity for a series of phosphodiesterase inhibitors was determined. […] Apoptosis and necrosis were determined morphologically after acridine orange and ethidium bromide labeling in accordance with the assay described, supra.

Structure (SMILES)	Fold induction at 100 μM (HT-29 cells [1]) [fold]	effect on levels of cAMP (HT-29 cells [3])	also measured
CCN(CC)CCSC12CC(=O)OC1(C)/C(=C/c1ccc(S(C)(=O)=O)cc1)c1ccc(F)cc12 (racemic) [A, rac-threo-(E)-1-(N,N′-diethylaminoethanethio)-1-(butan-1′,4′-olido)-[3′,4′:1,2]-6-fluoro-2-methyl-3-(p-methylsulfonylbenzylidene)-indan]	<2.0	–	–
CCCCCC[C@@H]([C@@H](C)O)n1cnc2c(N)ncnc21 (racemic) [EHNA]	<2.0	–	–
CC1=C(CC(=O)O)c2cc(F)ccc2/C1=C\c1ccc(S(C)(=O)=O)cc1 [Exisulind, (Z)-5-fluoro-2-methyl-1-[[4-(methylsulfonyl)phenyl]methylene]indene-3-yl acetic acid]	–	–	side effects at doses higher than recommended [2]: elevated levels of liver enzymes
COc1ccc(C2CNC(=O)C2)cc1OC1CCCC1 (stereo not shown) [Rolipram]	–	increased cAMP levels	–
CSc1ccc(/C=C2/C(C)=C(CC(=O)O)c3cc(F)ccc32)cc1 [Sulindac sulfide]	–	unaffected	growth inhibition, time course (HT-29 cells [4]): capable of inhibiting tumor cell growth; apoptosis, time course (HT-29 cells [5]): increase in apoptosis
